These results are taken from US6342501B1, “Pyrrolo[2,3-d] pyrimidines as antiviral agents” (The Regents of the University of Michigan, priority 1994, dated 2002).

Each structure is given as a SMILES string. Like-named read-outs stand apart in the source and are kept apart here.

For test [1], the system named is human cytomegalovirus (HCMV). In words: microbe, parasite or virus in culture. It is filed as cell-based, Towne strain. As to conditions: for IC50: Human betaherpesvirus 5, HFF, read-out: HCMV; for antiviral activity against HCMV (in words): comment on Table 1 data. The method, then:
(§1) The routine growth and passage of KB and BSC-1 cells was performed in monolayer cultures using minimal essential medium (MEM) with either Hanks salts [MEM(H)] or Earle salts [MEM(E)] supplemented with 10% calf serum. The sodium bicarbonate concentration was varied to meet the buffering capacity required. Cultures of diploid human foreskin fibroblast (HFF) or MRC-5 cells were grown in medium consisting of MEM(E) with 10% fetal bovine serum. Cells were passaged at 1:2 to 1:10 dilutions according to conventional procedures by using 0.05% trypsin plus 0.02% EDTA in a HEPES buffered salt solution (HBS) [Shipman, C., Jr., Proc. Soc. […] HFF and MRC-5 cells were passaged only at 1:2 dilutions. The Towne strain, plaque-purified isolate Po, of HCMV was kindly provided by Dr. Mark Stinski, University of Iowa. The KOS strain of HSV-1 was used in most experiments and was provided by Dr. Sandra K. Weller, University of Conn.
Stock HCMV was prepared by infecting HFF cells at a multiplicity of infection (m.o.i.) of <0.01 plaque-forming units (p.f.u.) per cell. Cell growth medium was changed every four days until cytopathology was evident in all cells (approximately 21 days). Supernatant fluids were retained as the virus stock.
Virus titers were determined using monolayer cultures of HFF cells for HCMV and monolayer cultures of BSC-1 cells for HSV-1 as described earlier [Prichard, M. N., et al., J. Virol. […] Briefly, HFF or BSC-1 cells were planted as described above in 96-well cluster dishes and incubated overnight at 37. degree. C. in a humidified 3% C02 -97% air atmosphere. The next day cultures were inoculated with HCMV or HSV-1 and serially diluted 1:3 across the remaining eleven columns of the 96-well plate. Cultures were incubated at 37. degree. C. for 2 hr to permit virus adsorption and then virus inoculum was replaced with 0.2 ml of fresh medium. Cultures were incubated for seven days for HCMV, two or three days for HSV-1, the medium was removed, and the cell sheets were stained with 0.1% crystal violet in 20% methanol.
HFF cells in 24-well cluster dishes were infected with approximately 100 p.f.u. of HCMV per cm^2 cell sheet using the procedures detailed above. Following virus adsorption, compounds dissolved in growth medium were added to duplicate wells in four to eight selected concentrations. After incubation at 37° C. for 7 to 10 days, cell sheets were fixed, stained with crystal violet and microscopic plaques enumerated as described above.
After virus adsorption, inoculum was replaced with 0.2 mL of fresh medium containing test compounds. The first row of 12 wells was left undisturbed and served as virus controls. Each well in the second row received an additional 0.1 mL of medium with test compound at three times the desired final concentration. The contents of the 12 wells were mixed by repeated pipetting and then serially diluted 1:3 along the remaining wells. In this manner, six compounds could be tested in duplicate on a single plate with concentrations from […]. Plates were incubated at 37° C. for seven days, subjected to one cycle of freezing and thawing; aliquots from each of the eight wells of a given column were transferred to the first column of a fresh 96-well monolayer culture of HFF cells. Contents were mixed and serially diluted 1:3 across the remaining eleven columns of the secondary plate. Each column of the original primary plate was diluted across a separate plate in this manner. Cultures were incubated, plaques were enumerated, and titers calculated as described above.
(§2) Dose-response relationships were constructed by linearly regressing the percent inhibition of parameters derived in the preceding sections against logarithm 10 drug concentrations. […] Samples containing positive controls (acyclovir for HSV-1 and ganciclovir for HCMV) were used in all assays.

For the next test, the system named is KB cells. In words: Cytotoxicity: KB cell growth (crystal violet staining). It is filed as cell-based. The following applies: Homo sapiens, read-out: KBgrv. The method, then:
(§3) Two different assays were used to explore cytotoxicity of selected compounds: (i) Cytotoxicity produced in stationary HFF cells was determined by microscopic inspection of cells used in plaque assays which were not affected by the virus [Turk, S. R., et al, Antimicrob.
Briefly, 96-well cluster dishes were planted with KB cells at 3000-5000 cells per well. After overnight incubation at 37° C., test compound was added in quadruplicate at six to eight concentrations. Plates were incubated at 37° C for 48 hours in a CO2 incubator, rinsed, fixed with 95% ethanol, and stained with 0.1% crystal violet. Acidified ethanol was added and plates read at 570 nm in a spectrophotometer designed to read 96-well ELISA assay plates.
as §2

In test [2] the test system is human foreskin fibroblasts (HFF cells). Nature of the test: Cytotoxicity in stationary HFF cells (microscopic inspection of plaque assay cells). The following applies: read-out: HFF. It is filed as cell-based. Here is the method: as §3, §2
The test system of test [3] is herpes simplex virus type 1 (HSV-1). In words: HSV-1 ELISA in BSC-1 cells. The format is cell-based, KOS strain. As to conditions: read-out: HSV-1. Here is the method: as §1
High titer HSV-1 stocks were prepared by infecting BSC cells at an m.o.i. of <0.1 as detailed previously [Turk, S. R., et al., Antimicrob.
Ninety-six-well cluster dishes were planted with 10,000 BSC-1 cells per well in 200 μL per well of MEM(E) plus 10% calf serum. After overnight incubation at 37° C., selected drug concentrations in quadruplicate and HSV-1 at a concentration of 100 p.f.u./well were added. Following a 3-day incubation at 37° C., medium was removed, plates were blocked, rinsed, and horse radish peroxidase conjugated rabbit anti-HSV-1 antibody was added. Following removal of the antibody containing solution, plates were rinsed, and then developed by adding 150 μL per well of a solution of tetramethylbenzidine as substrate. The reaction was stopped with H2SO4 and absorbance was read at 450 and 570 nm. Drug effects were calculated as a percentage of the reduction in absorbance in the presence of each drug concentration compared to absorbance obtained with virus in the absence of drug.
as §2
Background: ELISA stands for enzyme-linked immunosorbent assay.

Where [4] appears, read: Table 1, cytotoxicity, KB cell growth, 48 hours.
[5] abbreviates: Table 1, cytotoxicity, stationary HFF cells, visual.
The mark [6] stands for this setting: Human alphaherpesvirus 1, 72 h, Table 1, fifty-percent inhibitory concentration, ELISA, BSC-1 cells, 3-day incubation.

Turning to `N#Cc1c(Br)n(CC=Cc2ccccc2)c2ncnc(N)c12` [Compound 1361, 4-amino-6-bromo-7-(3-phenyl)prop-2-enyl-pyrrolo[2,3-d]pyrimidine-5-carbonitrile], the IC50 (in test [1]; in the test on KB cells (setting [4]); in test [2] (setting [5]); in test [3] (setting [6])) was more than 100 µM each time.

Consider `N#Cc1cn(CCCc2ccccc2)c2ncnc(N)c12` [Compound 1362, 4-amino-7-(3-phenyl)propyl-pyrrolo[2,3-d]pyrimidine-5-carbonitrile], for which the IC50 is more than 10 µM in test [1], more than 100 µM in the test with KB cells (setting [4]), more than 10 µM in test [2] (setting [5]) and more than 100 µM in test [3] (setting [6]).

Turning to `CC(c1ccccc1)n1c(Br)c(C#N)c2c(N)ncnc21` (centres unmarked) [Compound 1363, 4-amino-6-bromo-7-((2-phenyl)eth-2-yl)-pyrrolo[2,3-d]pyrimidine-5-carbonitrile], the IC50 is 2.7 µM in test [1], 50 µM with KB cells (setting [4]), more than 100 µM in test [2] (setting [5]) and 90 µM in test [3] (setting [6]). For the same compound, the “antiviral activity against HCMV (in words)” value (“antiviral activity” for short) in test [1] is “good to excellent antiviral activity”.

Take `N#Cc1c(N)n(Cc2ccc(F)cc2)c2ncnc(N)c12` [Compound 1365, 4,6-diamino-7-(4-flourobenzyl)-pyrrolo[2,3-d]pyrimidine-5-carbonitrile]: the IC50 in test [1] was 0.3 µM; in the test on KB cells (setting [4]), 60 µM; in test [2] (setting [5]), more than 100 µM; in test [3] (setting [6]), 33 µM. Moreover, the “antiviral activity” value in test [1] was “good to excellent antiviral activity”.

`N#Cc1cn(CCc2ccccc2)c2ncnc(N)c12` [Compound 1368, 4-amino-7-(2-phenyl)ethyl-pyrrolo[2,3-d]pyrimidine-5-carbonitrile]: the IC50 in test [1] was 0.7 µM; in the test with KB cells (setting [4]), more than 100 µM; in test [2] (setting [5]) it was 32 µM; in test [3] (setting [6]), 10 µM. Moreover, the “antiviral activity” value in test [1] was “excellent activity”.

Regarding `N#Cc1c(N)n(CCc2ccccc2)c2ncnc(N)c12` [Compound 1369, 4,6-diamino-7-(2-phenyl)ethyl-pyrrolo[2,3-d]pyrimidine-5-carbonitrile], the IC50 in test [1] is less than 0.1 µM; in the test on KB cells (setting [4]), 82 µM; in test [2] (setting [5]), 100 µM; in test [3] (setting [6]) it was 0.3 µM. In test [1], the “antiviral activity” value is recorded as “excellent activity”.

As for `N#Cc1cn(CC=Cc2ccccc2)c2ncnc(N)c12` [Compound 1372, 4-amino-7-(3-phenyl)prop-2-enyl-pyrrolo[2,3-d]pyrimidine-5-carbonitrile], the IC50 is more than 10 µM in test [1], more than 100 µM in the test with KB cells (setting [4]), more than 10 µM in test [2] (setting [5]) and more than 100 µM in test [3] (setting [6]).

Take `N#Cc1c(Br)n(Cc2ccc(Br)cc2)c2ncnc(N)c12` [Compound 1373, 4-amino-6-bromo-7-(4-bromobenzyl)-pyrrolo[2,3-d]pyrimidine-5-carbonitrile]: the IC50 in test [1] is 10.5 µM; in the test on KB cells (setting [4]) it was more than 100 µM; in test [2] (setting [5]), 10.5 µM; in test [3] (setting [6]), more than 100 µM.

As for `N#Cc1c(Br)n(Cc2cccc([N+](=O)[O-])c2)c2ncnc(N)c12` [Compound 1374, 4-amino-6-bromo-7-(3-nitrobenzyl)-pyrrolo[2,3-d]pyrimidine-5-carbonitrile], the IC50 in test [1] was more than 10 µM; in the test on KB cells (setting [4]), more than 100 µM; in test [2] (setting [5]), more than 10 µM; in test [3] (setting [6]) it was more than 100 µM.

With `NC(=O)c1cn(CCCc2ccccc2)c2ncnc(N)c12` [Compound 1376, 4-amino-7-(3-phenyl)propyl-pyrrolo[2,3-d]pyrimidine-5-carboxamide], the IC50 in test [1] came to 28 µM; with KB cells (setting [4]) it was 70 µM; in test [2] (setting [5]), 100 µM; in test [3] (setting [6]), 35 µM.

As to `N#Cc1cn(Cc2cccc([N+](=O)[O-])c2)c2ncnc(N)c12` [Compound 1382, 4-amino-7-(3-nitrobenzyl)-pyrrolo[2,3-d]pyrimidine-5-carbonitrile], the IC50 in test [1] is more than 10 µM; with KB cells (setting [4]), more than 100 µM; in test [2] (setting [5]), more than 10 µM; in test [3] (setting [6]), more than 100 µM.

`N#Cc1c(Br)n(Cc2ccc(Cl)cc2)c2ncnc(N)c12` [Compound 1388, 4-amino-6-bromo-7-(4-chlorobenzyl)-pyrrolo[2,3-d]pyrimidine-5-carbonitrile]: the IC50 in test [1] was 116 µM; in the test with KB cells (setting [4]), more than 100 µM; in test [2] (setting [5]), 116 µM; in test [3] (setting [6]) it was more than 100 µM.

With `N#Cc1c(N)n(Cc2ccc(Br)cc2)c2ncnc(N)c12` [Compound 1389, 4,6-diamino-7-(4-bromobenzyl)-pyrrolo[2,3-d]pyrimidine-5-carbonitrile], the IC50 in test [1] is 0.2 µM; in the test on KB cells (setting [4]) it was 15 µM; in test [2] (setting [5]), more than 10 µM; in test [3] (setting [6]), more than 100 µM. For the same compound, the “antiviral activity” value in test [1] is reported as “good to excellent antiviral activity”.

Regarding `NC(=O)c1cn(CCc2ccccc2)c2ncnc(N)c12` [Compound 1396, 4-amino-7-(2-phenyl)ethyl-pyrrolo[2,3-d]pyrimidine-5-carboxamide], the IC50 in test [1] was 17 µM; in the test with KB cells (setting [4]) it was 40 µM; in test [2] (setting [5]), more than 100 µM; in test [3] (setting [6]) it was 45 µM.

For the compound `NC(=O)c1c(Br)n(CCc2ccccc2)c2ncnc(N)c12` [Compound 1409, 4-amino-6-bromo-7-(2-phenyl)ethyl-pyrrolo[2,3-d]pyrimidine-5-carboxamide], the IC50 was 100 µM in test [1], more than 100 µM with KB cells (setting [4]), more than 100 µM in test [2] (setting [5]) and more than 100 µM in test [3] (setting [6]). Further, the “antiviral activity” value in test [1] was “lost”.

With `NC(=O)c1cn(Cc2ccc([N+](=O)[O-])cc2)c2ncnc(N)c12` [Compound 1412, 4-amino-7-(4-nitrobenzyl)-pyrrolo[2,3-d]pyrimidine-5-carboxamide], the IC50 in test [1] is 5 µM; in the test with KB cells (KB, 48 h), more than 100 µM; in test [2] (HFF) it was 100 µM; in test [3] (Human alphaherpesvirus 1, BSC-1, 72 h), 45 µM. For the same compound, in test [1], the “antiviral activity” value is on record as “good to excellent antiviral activity”.
